The values that follow come from patent US7592353B2, “Substituted 3-amino-thieno[2,3-b]pyridine-2-carboxylic acid amide compounds and processes for preparing and their uses” (Boehringer Ingelheim International GmbH, priority 2006, dated 2009).

In one data set the target is T1, human IKKβ (Homo sapiens, UniProt O14920).
T1 construct: FLAG (N)
T1 sequence (O14920 1-756): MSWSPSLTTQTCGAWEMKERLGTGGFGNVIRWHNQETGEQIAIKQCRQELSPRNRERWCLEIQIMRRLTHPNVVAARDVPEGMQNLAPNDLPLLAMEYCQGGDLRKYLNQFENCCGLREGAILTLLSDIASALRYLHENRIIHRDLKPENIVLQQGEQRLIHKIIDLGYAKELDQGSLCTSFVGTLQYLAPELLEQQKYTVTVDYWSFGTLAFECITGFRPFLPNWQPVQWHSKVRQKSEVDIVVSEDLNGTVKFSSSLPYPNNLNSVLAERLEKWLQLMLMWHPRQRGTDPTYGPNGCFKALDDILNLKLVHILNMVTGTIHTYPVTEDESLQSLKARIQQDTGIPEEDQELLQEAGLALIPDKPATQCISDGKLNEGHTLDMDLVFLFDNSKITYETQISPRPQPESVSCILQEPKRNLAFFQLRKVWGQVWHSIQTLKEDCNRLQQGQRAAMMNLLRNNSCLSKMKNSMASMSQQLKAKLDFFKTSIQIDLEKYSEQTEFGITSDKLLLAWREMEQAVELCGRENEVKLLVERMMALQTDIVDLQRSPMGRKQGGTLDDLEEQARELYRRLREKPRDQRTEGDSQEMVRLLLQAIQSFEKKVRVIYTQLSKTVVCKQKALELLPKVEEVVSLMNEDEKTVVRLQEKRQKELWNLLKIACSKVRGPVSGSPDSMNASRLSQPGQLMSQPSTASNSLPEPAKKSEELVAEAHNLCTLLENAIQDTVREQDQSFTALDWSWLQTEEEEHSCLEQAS
As to the kind of experiment: Molecular assay IKKb: phosphorylation of IκBα substrate by IKKβ. It counts as biochemical. Here is the method: The inhibition of IKKα and IKKβ by the compounds of the present invention can be determined with the following assay that measures the phosphorylation of the IκBα substrate by the respective kinases. The enzymes used in the assay were N-terminally flag-tagged versions of the human IKKβ or IKKα and the substrate was a GST fusion protein with IκBα (amino acids 1-54).
The reaction mixtures (60 μl) contained 20 mM HEPES pH 7.5, 10 mM MgCl2, 2 mM MnCl2, 100 mM NaCl, 100 μM Na3VO4, 20 mM β-glycerophosphate, 1 mM DTT, 2% DMSO, 250 nM ATP, 0.4 nM [^33P]ATP (specific activity, 3000 Ci/mmol), IκBα substrate, IKK enzyme and test compound. The reaction mixtures contained either 3.6 μg/ml IKKα and 245 μg/ml IκBα or 0.9 μg/ml IKKβ and 53 μg/ml IκBα.
Reactions were initiated by adding a solution of IκBα substrate and ATP to polypropylene plates containing IKK enzyme that was pre-incubated for 5 minutes with test compound. Then the reaction mixtures were incubated for 1 hour at 25° C., placed on ice and quenched by the addition of 150 μl 10% trichloroacetic acid and 5% disodium pyrophosphate. After mixing, the entire contents of the quenched reaction mixtures were transferred to a pre-wetted Packard UniFilter filtration plate, aspirated and washed 6 times with 250 μl of ddH2O using the Packard Filtermate Harvester. Filtration plates were then air dried, supplemented with 40 μl of Microscint 20 scintillation fluid and the ^33P-labeled reaction products were quantified using the Packard TopCount scintillation counter.
Compounds were tested in three-fold serial dilutions and inhibitor concentrations to achieve 50% inhibition of enzyme activity (i.e., IC50) were derived from dose-response curves using SAS software (SAS Institute, Cary N.C.). A non-linear regression analysis based on the Hill equation was applied to the percent inhibition versus concentration data. In all cases, compound concentrations were verified by HPLC.

The subject of data set [1] is ICAM-1 Expression on HeLa Cells. As to the kind of experiment: Cell assay HeLa: ELISA of TNFα-stimulated ICAM-1 expression on HeLa cells. It counts as cell-based. As to conditions: for IC50: Homo sapiens, HeLa cells, TNFα stimulation, ICAM-1 expression; for cellular potency relative to the —CF3 group of compound 101: comparison in words, Table II. As to the method: HeLa cells are seeded on 96 well tissue culture treated plates (Costar) in complete medium comprised of 10% decomplemented fetal bovine serum in RPMI1640 with gentamycin and L-glutamine and grown overnight to confluence. The following day, the media is changed and the wells are treated with test compounds. 10 mM DMSO stock solutions of compounds are serially diluted with 0.1% DMSO (final concentration)-screening media to 5 final concentrations (starting at 10 μM). Compounds are pre-incubated with cells for 30 min followed by stimulation with TNFα (R&D Systems) for 5-6 hr. The adherent cells are then assayed for expression of intercellular adhesion molecule-1 (ICAM-1). Monolayers are washed three times with D-PBS (Gibco) and fixed for 10 min at room temperature with 1% paraformaldehyde (Polysciences, Inc) diluted in D-PBS. After washing to remove fixative, the monolayers are blocked with 2% BSA-D-PBS overnight at 4° C. 100 μL of anti-ICAM-1 mAB RR1-HRP (diluted 1:5000 in 2% BSA-DPBS; Zymed custom conjugate of BIPI mAB) is added for 1 hr at 37° C. Wells are washed three times with D-PBS. 100 μL of ABTS substrate diluted in substrate buffer (Zymed) is added to each well. Optical absorbance is measured at 405 nm in a Thermomax microplate reader ([…]). Data is plotted as percent of control and IC50s are determined using xlfit 4 model # 201.

Data set [2] in a line: Rat oral exposure (plasma exposure upon oral administration). It counts as in vivo. The settings on record: for concentration at 2 h / concentration at 6 h / concentration at 10 h: plasma, rat, oral, 10 mg/kg; for concentration at 2 h: read-out: Rat oral exposure (μM) @ 10 mg/kg dose 2h; for concentration at 6 h: read-out: Rat oral exposure (μM) @ 10 mg/kg dose 6h; for concentration at 10 h: read-out: Rat oral exposure (μM) @ 10 mg/kg dose 10h.

The subject of data set [3] is established type II collagen arthritis in rats. As to the kind of experiment: Rat CIA model (7 day rat established type II collagen arthritis). In kind it is in vivo. An excerpt:
Effects of Compounds in 7 Day Rat Established Type II Collagen Arthritis
Purpose: To determine the dose responsive efficacy of compounds administered by oral gavage dosing bid in inhibiting the inflammation, cartilage destruction and bone resorption of established type II collagen arthritis in rats. The terminal pharmacokinetic component is included.
Animals: 36 (Order 42) Female Lewis rats (Harlan, 1173000), weighing 125-150 g on arrival. Extras are used because animals with arthritis are selected and there is not 100% incidence of disease in this model in the short time frame for enrollment (inject 42 with collagen to get […] solid responders on days 10, 11 for 4 groups of 8. Four rats are used to serve as normal controls.
Materials: Agents or drugs in vehicle (Cremaphor), Type II collagen, Freund's incomplete adjuvant.
General Study Design: Animals (8/group for arthritis, 4/group for normal control), housed 4/cage, are acclimated for 4-8 days.
Acclimated animals are anesthetized with Isoflurane and given collagen injections (day 0). […]
Statistical analysis of body/paw weights and paw AUC and histopathology parameters are evaluated using a one-way analysis of variance (ANOVA). […]
Percent inhibition of paw weight and AUC is calculated using the following formula: % Inhibition=A−B/A×100 A=Mean Disease Control−Mean Normal B=Mean Treated−Mean Normal

On to `CCCc1cc(N2CCC(S(C)(=O)=O)CC2)nc2sc(C(N)=O)c(N)c12` [Compound 100, reference compound], for which, on human IKKβ, the IC50 was 78 nM. For the same molecule, in data set [1], half-maximal inhibition (IC50) was put at 720 nM and the “cellular potency relative to the —CF3 group of compound 101” value was “improved cellular potency”. In addition, in data set [2], the concentration at 2 h stood at 0.21 µM, the concentration at 6 h was found to be 0.12 µM and the concentration at 10 h is 0.08 µM.

With `CS(=O)(=O)C1CCN(c2cc(C(F)(F)F)c3c(N)c(C(N)=O)sc3n2)CC1` [Compound 101], the IC50 was 120 nM against human IKKβ and 3200 nM in data set [1].

`CCC(F)(F)c1cc(N2CCC(S(C)(=O)=O)CC2)nc2sc(C(N)=O)c(N)c12` [Compound 115, 3-Amino-4-(1,1-difluoro-propyl)-6-(4-methanesulfonyl-piperidin-1-yl)-thieno[2,3-b]pyridine-2-carboxylic acid amide] showed an IC50 against human IKKβ of 26 nM. Besides, in data set [1], the IC50 was 700 nM and the “cellular potency relative to the —CF3 group of compound 101” value was “improved cellular potency”. Further, the “level of sustained plasma exposure upon oral administration to rat, versus Compound 100” value in data set [2] (comparison in words, Table II) is given as “improved level of sustained plasma exposure”. Further, in data set [2], the concentration at 2 h is 1.59 µM, the concentration at 6 h turned out to be 0.78 µM and the concentration at 10 h was determined as 0.65 µM. Further, the “oral activity in a rat model of collagen induced arthritis” value in data set [3] (comparison in words, Table III) is reported as “superior oral activity”. For the same molecule, in data set [3] (rat CIA, oral, 10 mg/kg BID), the “Inhibition of paw weight increase” value is 44%.

A word on the IC50: it is the concentration needed to halve the response being measured. Read a high IC50 as lower potency.
